According to patent publication US5254550A, “Prolinal derivatives and pharmaceutical compositions thereof” (Ono Pharmaceutical Co., Ltd., priority 1986, dated 1993):
Residues, ends and D or L forms follow the SMILES beside them. *: point of attachment. Cbz = O=C(OCc1ccccc1)*; CH2Cl = ClC*

Biological target: T1, prolyl endopeptidase (Bos taurus, UniProt Q9XTA2)
T1 construct: prolyl endopeptidase which was purified from bovine brain; from tissue; host or cells: bovine brain (purified by the method of J. Biochem., 94, 1179 (1983))
Assay: Prolyl Endopeptidase Inhibitory Activity in Vitro
Format: biochemical
Conditions: prolyl endopeptidase purified from bovine brain; substrate N-benzyloxycarbonyl-glycyl-prolyl-p-nitroanilide; pH 7.5, 37° C., 15 mins preincubation, 405 nm; read-out: Concentration for 50% inhibition IC50
Protocol: Inhibitory activity of prolyl endopeptidase was measured by the following test system.
A mixed solution of 20 mM tris-HCl buffer (pH 7.5; 935 μl; containing 10 mM EDTA and 10 mM mercaptoethanol), a solution of a compound of the present invention in DMSO (10 μl) and a solution of prolyl endopeptidase which was purified from bovine brain (0.13 unit; prepared by the method described in J. Biochem., 94, 1179 (1983)) in tris-HCl buffer (15 μl) was preincubated for 15 mins at 37° C.
To the solution, 5 mM of N-benzyloxycarbonyl-glycyl-prolyl-p-nitroanilide (40 μl) in a mixture of 40% dioxane-60% water was added. The solution was incubated for 1 min at the same temperature.
Optical absorption (a1) at 405 nm of the solution, and optical absorption (a2) at 405 nm of the solution after more 30 mins' incubation at 37° C. were measured.
Optical absorptions (b1 and b2) of the solutions using DMSO instead of the solution of the compound of the present invention were also measured.
Inhibitory ratio was calculated by the following expression and IC50 (required concentration for 50% inhibition) was obtained (See Protein, Nucleic acid and Enzyme 25(6), 513, 1980). [formula]

T1 sequence (Q9XTA2 whole entry): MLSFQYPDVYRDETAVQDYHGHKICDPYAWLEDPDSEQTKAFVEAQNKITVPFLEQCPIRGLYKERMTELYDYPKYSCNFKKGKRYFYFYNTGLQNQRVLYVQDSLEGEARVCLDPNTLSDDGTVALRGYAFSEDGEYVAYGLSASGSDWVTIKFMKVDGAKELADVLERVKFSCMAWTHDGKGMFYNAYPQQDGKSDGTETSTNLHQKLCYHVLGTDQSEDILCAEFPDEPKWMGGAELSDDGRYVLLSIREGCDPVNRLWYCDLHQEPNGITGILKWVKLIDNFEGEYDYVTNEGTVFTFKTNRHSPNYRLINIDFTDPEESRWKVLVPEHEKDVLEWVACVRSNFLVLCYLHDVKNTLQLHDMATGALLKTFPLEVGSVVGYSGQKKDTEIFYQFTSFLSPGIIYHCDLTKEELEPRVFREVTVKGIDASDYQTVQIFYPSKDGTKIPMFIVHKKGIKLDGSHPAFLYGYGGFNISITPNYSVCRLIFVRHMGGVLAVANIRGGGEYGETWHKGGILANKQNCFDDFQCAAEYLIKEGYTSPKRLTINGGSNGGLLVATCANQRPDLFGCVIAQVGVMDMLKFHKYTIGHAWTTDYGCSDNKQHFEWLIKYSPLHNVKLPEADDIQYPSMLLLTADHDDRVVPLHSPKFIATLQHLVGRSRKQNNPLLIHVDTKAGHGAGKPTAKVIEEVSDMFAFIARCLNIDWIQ

Structure (SMILES)	IC50 [nM]
O=C[C@@H]1CCCN1C(=O)CCC(=O)NCc1ccco1 [2 (dd), N-[3-[N-(2-furylmethyl)-carbamoyl]propanoyl]-L-prolinal]	790
O=C[C@@H]1CCCN1C(=O)CCC(=O)NCCc1ccccc1 [Example 1, N-[3-[N-(2-phenylethyl)carbamoyl]propanoyl]-L-prolinal]	130
O=C[C@@H]1CCCN1C(=O)CCC(=O)NCc1cccc2ccccc12 [2 (y), N-[3-[N-(1-naphthyl-methyl)carbamoyl]propanoyl]-L-prolinal]	43
O=C[C@@H]1CCCN1C(=O)CCC(=O)NCCCCCc1ccccc1 [1 (h), N-[3-[N-(5-phenylpentyl)carbamoyl]propanol]-L-prolinal]	70
O=C[C@@H]1CCCN1C(=O)CCC(=O)NCc1ccccc1 [1 (a), N-[3-(N-benzylcarbamoyl)propanoyl)-L-prolinal]	230
O=C[C@@H]1CCCN1C(=O)CCC(=O)NCc1ccccc1Cl [2 (e), N-[3-[N-(2-chlorobenzyl)-carbamoyl]propanoyl]-L-prolinal]	160
Cc1ccc(CN(C(=O)CCC(=O)N2CCC[C@H]2C=O)c2ccccc2)cc1 [2 (n), N-[3-[N-(4-methylphenyl-methyl)-N-phenyl-carbamoyl]propanoyl]-L-prolinal]	1.9
CN(Cc1ccccc1)C(=O)C=CC(=O)N1CCC[C@H]1C=O [1 (s), N-[3-(N-benzyl-N-methylcarbamoyl)acryloyl]-L-prolinal]	1900
O=C[C@@H]1CCCN1C(=O)[C@@H]1CCC[C@H]1C(=O)NCc1ccccc1 [1 (x), N-[(1R,2R)-2-(N-benzylcarbamoyl)cyclopentane-1-carbonyl]-L-prolinal]	14
Cc1ccc(CNC(=O)CCC(=O)N2CCC[C@H]2C=O)cc1 [2 (a), N-[3-[N-(4-methylbenzyl)-carbamoyl]propanoyl]-L-prolinal]	23
O=C[C@@H]1CCCN1C(=O)CCC(=O)NCC(c1ccccc1)c1ccccc1 [1 (bb), N-[3-[N-(2,2-diphenylethyl)carbamoyl]propanoyl]-L-prolinal]	1200

System: prolyl endopeptidase
Assay: not given
Conditions: See J. Neurochem., 41, 69 (1983); cited from earlier work

Structure (SMILES)	inhibition of prolyl endopeptidase (in words)
O=C(NCC(=O)N1CCC[C@H]1C(=O)CCl)OCc1ccccc1 [N-benzyloxycarbonyl-glycyl-L-proplyl-chloromethane] (Cbz-Gly-Pro-CH2Cl)	strongly inhibit
